Data published in ChEMBL document CHEMBL6153170 (J Med Chem, 2025).
Activity calls are given as the source filed them. No cut-off for these calls is given here.

Tests used:
Histone deacetylase 8 = target: T1, Histone deacetylase 8 (Homo sapiens, UniProt Q9BY41); test: Inhibition of C-terminal His-tagged recombinant full length human HDAC8 extracted from baculovirus infected Sf9 insect cells preincubated for 5 mins followed by substrate addition and measured after 30 mins by fluorescence microplate reader analysis
T1 sequence (Q9BY41 whole entry): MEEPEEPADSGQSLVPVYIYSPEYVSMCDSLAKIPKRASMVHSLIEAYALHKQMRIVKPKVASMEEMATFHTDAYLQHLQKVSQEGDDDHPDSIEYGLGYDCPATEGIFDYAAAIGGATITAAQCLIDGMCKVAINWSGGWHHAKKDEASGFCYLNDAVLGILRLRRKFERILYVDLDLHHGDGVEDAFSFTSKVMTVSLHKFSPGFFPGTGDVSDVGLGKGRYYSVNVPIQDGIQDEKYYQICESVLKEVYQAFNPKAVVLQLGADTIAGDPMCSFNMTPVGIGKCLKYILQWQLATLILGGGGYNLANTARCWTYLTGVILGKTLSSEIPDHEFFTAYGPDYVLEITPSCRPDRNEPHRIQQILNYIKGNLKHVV

Jurkat [1] = test: Cytotoxicity against human Jurkat T cells assessed as reduction in cell viability at 3.3 to 10 uM incubated for 48 hrs; assay type: functional, cell-based; conditions: dose 3.3-10 µM
[2] = target: Programmed cell death 1 ligand 1 (Mus musculus, UniProt Q9EP73); test: Binding affinity to C-terminal 6His-tagged recombinant mouse PD-L1 (1 to 238 residues) expressed in HEK293 cells assessed as dissociation constant by SPR analysis
Chain of Programmed cell death 1 ligand 1 (Q9EP73 whole entry, the tested form may be a part): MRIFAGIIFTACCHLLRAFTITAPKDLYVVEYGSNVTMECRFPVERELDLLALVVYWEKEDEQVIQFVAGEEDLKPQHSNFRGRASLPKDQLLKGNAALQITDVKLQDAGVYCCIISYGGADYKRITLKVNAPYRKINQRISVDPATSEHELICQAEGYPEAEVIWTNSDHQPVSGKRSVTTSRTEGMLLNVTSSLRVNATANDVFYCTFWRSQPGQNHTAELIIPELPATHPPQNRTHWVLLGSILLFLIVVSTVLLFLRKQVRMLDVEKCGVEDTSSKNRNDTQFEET

Jurkat [3] = test: Effect on HDAC6 protein level in human Jurkat T cells at 0.1 to 2 uM incubated for 12 hrs by Western blot analysis; assay type: functional, cell-based; conditions: dose 0.1-2 µM
[4] = target: T2, Histone deacetylase 8 (Homo sapiens) (UniProt Q9BY41); test: Inhibition of HDAC8 in human Jurkat T cells assessed as increase in acetylated SMC3 level incubated for 12 hrs by Western blot analysis; assay type: cell-based
T2 sequence (whole entry): T1 sequence (Q9BY41 whole entry)

[5] = target: Histone deacetylase 1 (Mus musculus) (UniProt O09106); test: Inhibition of HDAC1 in mouse B16-F10 cells assessed as increase in acetylated H3 level incubated for 12 hrs by Western blot analysis; assay type: cell-based
Chain of Histone deacetylase 1 (Mus musculus) (O09106 whole entry): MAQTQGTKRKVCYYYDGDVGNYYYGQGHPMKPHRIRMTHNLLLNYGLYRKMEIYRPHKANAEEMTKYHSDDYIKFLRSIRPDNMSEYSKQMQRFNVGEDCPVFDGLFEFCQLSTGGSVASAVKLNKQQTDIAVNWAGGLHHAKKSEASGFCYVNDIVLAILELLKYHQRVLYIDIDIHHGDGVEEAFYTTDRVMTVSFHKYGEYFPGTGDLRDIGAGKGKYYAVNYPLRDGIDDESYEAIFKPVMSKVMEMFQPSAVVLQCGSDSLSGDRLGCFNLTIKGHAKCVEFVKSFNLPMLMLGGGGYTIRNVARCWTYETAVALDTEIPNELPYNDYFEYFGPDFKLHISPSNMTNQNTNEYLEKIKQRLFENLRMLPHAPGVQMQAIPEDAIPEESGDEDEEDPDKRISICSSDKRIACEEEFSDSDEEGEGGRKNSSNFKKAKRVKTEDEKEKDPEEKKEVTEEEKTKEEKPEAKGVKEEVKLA

B16-F10 [6] = test: Effect on acetylated histone H3 protein level in mouse B16-F10 cells at 0.1 to 2 uM incubated for 12 hrs by Western blot analysis; assay type: functional, cell-based; conditions: dose 0.1-2 µM
B16-F10 [7] = test: Downregulation of PD-L1 expression level in mouse B16-F10 cells at 0.1 to 2 uM incubated for 24 hrs by Western blot analysis; assay type: functional, cell-based; conditions: dose 0.1-2 µM
[8] = AUC (0 to t) in male Sprague-Dawley rat at 2 mg/kg, iv measured after 48 hrs by triple quadrupole mass spectrometric analysis; assay type: ADME, organism-based; conditions: in vivo
[9] = Half-life in male Sprague-Dawley rat at 2 mg/kg, iv measured after 48 hrs by triple quadrupole mass spectrometric analysis; assay type: ADME, organism-based; conditions: in vivo
[10] = Cmax in male Sprague-Dawley rat at 2 mg/kg, iv measured after 48 hrs by triple quadrupole mass spectrometric analysis; assay type: ADME, organism-based; conditions: in vivo
[11] = Half-life in male Sprague-Dawley rat at 10 mg/kg, po measured after 48 hrs by triple quadrupole mass spectrometric analysis; assay type: ADME, organism-based; conditions: in vivo
[12] = Apparent volume of distribution during terminal phase in male Sprague-Dawley rat at 10 mg/kg, po measured after 48 hrs by triple quadrupole mass spectrometric analysis; assay type: ADME, organism-based; conditions: in vivo, read-out: Vz/F
[13] = Cmax in male Sprague-Dawley rat at 10 mg/kg, po measured after 48 hrs by triple quadrupole mass spectrometric analysis; assay type: ADME, organism-based; conditions: in vivo
[14] = Apparent clearance during terminal phase in male Sprague-Dawley rat at 2 mg/kg, iv measured after 48 hrs by triple quadrupole mass spectrometric analysis; assay type: ADME, organism-based; conditions: in vivo
[15] = Toxicity in C57BL/6 mouse model implanted with mouse B16-F10 cells assessed as body weight loss at 20 mg/kg/day, ip administered for 14 days; assay type: organism-based; conditions: in vivo, 336 h, time 14 day
B16-F10 [16] = test: Antitumor activity against mouse B16-F10 cells implanted in C57BL/6 mouse model assessed as reduction in tumor volume at 20 mg/kg/day, ip administered for 14 days; assay type: functional, organism-based; conditions: time 14.0 day
[17] = In vivo inhibition of PD-L1 in C57BL/6 mouse model implanted with mouse B16-F10 cells assessed as reduction in PD-L1 protein expression in tumor at 20 mg/kg/day, ip administered for 14 days by Western blot analysis relative to control; assay type: functional; conditions: C57BL/6, B16-F10, 336 h, time 14 day
B16-F10 [18] = test: Antitumor immunity activity against mouse B16-F10 cells implanted in C57BL/6 mouse model assessed as CD3+ CD4+ T cell percentage in tumor at 20 mg/kg/day, ip administered for 14 days by flow cytometric analysis (reference value: 0.095 %); assay type: functional; conditions: time 14 day
B16-F10 [19] = test: Antitumor immunity activity against mouse B16-F10 cells implanted in C57BL/6 mouse model assessed as CD3+ CD4+ T cell percentage in tumor at 20 mg/kg/day, ip co-administered with ACY-1215 for 14 days by flow cytometric analysis (reference value: 0.095 %); assay type: functional; conditions: time 14 day
B16-F10 [20] = test: Antitumor immunity activity against mouse B16-F10 cells implanted in C57BL/6 mouse model assessed as CD3+ CD8+ T cell percentage in tumor at 20 mg/kg/day, ip administered for 14 days by flow cytometric analysis (reference value: 0.52 %); assay type: functional; conditions: time 14 day
B16-F10 [21] = test: Antitumor immunity activity against mouse B16-F10 cells implanted in C57BL/6 mouse model assessed as CD3+ CD8+ T cell percentage in tumor at 20 mg/kg/day, ip co-administered with ACY-1215 for 14 days by flow cytometric analysis (reference value: 0.52 %); assay type: functional; conditions: time 14 day
[22] = Toxicity in C57BL/6 mouse model implanted with mouse B16-F10 cells assessed as morphological changes in kidney at 20 mg/kg/day, ip administered for 14 days by H and E staining based analysis; assay type: organism-based; conditions: in vivo, 336 h, time 14 day
[23] = Toxicity in C57 mouse assessed as myelosuppression by measuring MCV level at 20 mg/kg/day, IG administered for 14 days by heat map analysis; assay type: organism-based; conditions: in vivo, po, 336 h, time 14 day
[24] = Toxicity in C57 mouse assessed as myelosuppression by measuring MCHC level at 20 mg/kg/day, IG administered for 14 days by heat map analysis; assay type: organism-based; conditions: in vivo, po, 336 h, time 14 day
[25] = Toxicity in C57 mouse assessed as myelosuppression by measuring platelet level at 20 mg/kg/day, IG administered for 14 days by heat map analysis; assay type: organism-based; conditions: in vivo, po, 336 h, time 14 day
[26] = Toxicity in C57 mouse assessed as change in ALB level at 20 mg/kg/day, IG administered for 14 days by heat map analysis; assay type: organism-based; conditions: in vivo, po, 336 h, time 14 day
[27] = Toxicity in C57 mouse assessed as change in TBIL level at 20 mg/kg/day, IG administered for 14 days by heat map analysis; assay type: organism-based; conditions: in vivo, po, 336 h, time 14 day
B16-F10 [28] = test: cells; conditions: Mus musculus, B16-F10, 48 h
HepG2 [29] = test: cells; conditions: Homo sapiens, HepG2, 48 h
Jurkat [30] = test: cells; conditions: Homo sapiens, 72 h
HepG2 [31] = test: cells; conditions: Homo sapiens, HepG2, 48 h; remark: listed apart in the source

IC50 (Histone deacetylase 8): > 10 µM
inhibition [4]: inactive
inhibition [5]: inactive
AUC(0-t) at 48 h [8]: 1140 ng·h/mL
half-life [9]: 6.9 h
Cmax [10]: 638 ng/mL
half-life [11]: 13.2 h
Vd/F [12]: 31.9 L/kg
Cmax [13]: 194 ng/mL
CLz/F [14]: 16.2 mL/min/kg
IC50 (B16-F10 [28]): 8.1 µM
IC50 (HepG2 [29]): 9.6 µM
IC50 (Jurkat [30]): > 10 µM
IC50 (HepG2 [31]): 3.4 µM
SMILES: COc1nc(-c2cccc(-c3ccccc3)c2C)ccc1CNCCCCCCC(=O)NO
Activity (Jurkat [1]): Active; Mild Cytotoxicity Observed
Kd [2]: 0.0553 µM
Activity (Jurkat [3]): inactive
Activity (B16-F10 [6]): Active; Negligible Effect Observed
Activity (B16-F10 [7]): Active
Activity [15]: Non-toxic
Activity (B16-F10 [16]): Active
inhibition in vivo at 20 mg/kg/day [17]: ~68%
Activity (B16-F10 [18]): 11.5%
Activity (B16-F10 [19]): 7.72%
Activity (B16-F10 [20]): 11.19%
Activity (B16-F10 [21]): 6.39%
Activity [22]: Non-toxic
Activity [23]: Non-toxic
Activity [24]: Non-toxic
Activity [25]: Non-toxic
Activity [26]: Non-toxic
Activity [27]: Non-toxic
